# Measured values from patent US20210024975A1, “METHODS FOR IDENTIFYING INHIBITORS OF LIPID A DEACYLASE AND […] RELATED TO SAME” (UNIVERSITY OF WASHINGTON, priority 2019, published 2021).
# Test system: P. gingivalis 33277 mutants
# Experiment: polymixin B sensitivity of P. gingivalis strains
# Type: cell-based, Porphyromonas gingivalis
# Settings: J5-c5 transposon mutant; similar to the wild-type bacterium
substance,measurement,value
polymixin B,polymixin B sensitivity of J5-c5 mutants,resistance
